In patent US20220144775A1, “HYDRAZIDE COMPOUND AND KINASE INHIBITOR” (NISSAN CHEMICAL CORPORATION, priority 2019, published 2022):

System: YAP
Experiment: YAP phosphorylation inhibitory action in SKOV3 (HTRF)
Assay type: cell-based, human
Settings: 10 μM, 1 hr, non-treatment 100%
Description: Human ovarian cancer cell line SKOV3 (manufactured by DS Pharma Biomedical Co., Ltd.) was precultured using a 15% FBS-containing McCoy's 5a medium (manufactured by Sigma-Aldrich) (single layer culture). The above-mentioned cells in the logarithmic growth phase were washed with PBS. A 0.25% (w/v) trypsin-1 mmol/L ethylenediaminetetraacetic acid (EDTA) solution (manufactured by FUJIFILM Wako Pure Chemical Corporation) was added and the adherent cells were incubated at 37° C. for 3 min and detached. The above-mentioned medium was added, and the cells were centrifuged and resuspended in the same medium.
According to the method of patent document 1 (WO 2014/017513), a composition of 10% FBS-containing DMEM medium (Phenol-red free, manufactured by FUJIFILM Wako Pure Chemical Corporation) containing 0.015% (w/v) deacylated gellan gum (KELCOGEL CG-LA, manufactured by SANSHO Co., Ltd.) was prepared using FCeM-series Preparation Kit (manufactured by FUJIFILM Wako Pure Chemical Corporation). Then, various cells prepared above were suspended in the above-mentioned medium composition (3D culture conditions) added with deacylated gellan gum or a medium without the addition (2D culture conditions), and seeded on a 50 μL/well (manufactured by Corning Incorporated, a 96 well flat bottom plate, #3585, 2D culture conditions) or 25 μL/well (manufactured by Corning Incorporated, 96 well low adhesion flat bottom plate, #3474) at 100000 cells/well. The plate was allowed to stand at 37° C. in a 5% CO2 incubator, and the compound of the present invention diluted with the medium at 2 or 6 times the final concentration, DMSO, or the medium alone was added to the plate 3 hr after the seeding at 50 μL/well (2D culture conditions) or 5 μL/well (3D culture conditions) to make the final concentration of each compound 10 μM. After culture at 37° C. in a 5% CO2 incubator for 1 hr, the supernatant was aspirated, supplemented Lysis buffer (1-fold concentration, manufactured by Cisbio, YAP-total kit or YAP phospho-S27 kit) (50 μL) was added under 2D culture conditions, and supplemented Lysys buffer (4-fold concentration) (10 μL) was added to the culture supernatant under 3D conditions, and the mixture was stirred by a plate shaker for 30 min. Thereafter, the plate was centrifuged, 16 μL of the supernatant was transferred to a 384-well white plate (Corning, #4512), and each antibody solution (pYAP d2 antibody or Total-YAP d2 antibody, and pYAP Cryptate antibody or Total-YAP Cryptate antibody) included in the kit was added at 4 μL/well in total, and the mixture was allowed to stand at room temperature overnight. As a blank control, pYAP Cryptate antibody or Total-YAP Cryptate antibody alone was added to cells free of stimulation with compound and the mixture was treated in the same manner. The next day, the wavelengths at 665 nm and 615′ nm were measured in the HTRF mode of EnVision (manufactured by PerkinElmer).
The obtained signal was calculated as follows. Ratio=signal (665 nm)/signal (615 nm)×10000, ΔR=Signal(Ratio)−Background fluorescence, and the relative phosphorylated YAP amount or total YAP amount for each compound when ΔR of the compound non-addition group (non-treatment) is 100% is shown in Tables 7 and 8 (2D culture), and Tables 9 and 10 (3D culture). From the results, it was shown that the compound of the present zo invention has a YAP phosphorylation inhibitory action under both 2D and 3D culture conditions.

SMILES | phosphorylated YAP amount (%) (2D culture conditions) | total YAP amount (%) (2D culture conditions) | phosphorylated YAP amount (%) (3D culture conditions) | total YAP amount (%) (3D culture conditions)
CC/C(=N\NC(=O)C(C)Nc1cncc(F)c1)c1ccc(O)c(C)c1O (centres unmarked) [A-007] | 16 | 91 | 21 | 96
CC/C(=N\NC(=O)C(C)Nc1cccnc1)c1ccc(O)c(C)c1O (centres unmarked) [A-004, (E)-N′-(1-(2,4-dihydroxy-3-methylphenyl)propylidene)-2-(pyridin-3-ylamino)propanehydrazide] | 19 | 87 | 33 | 105
